In the assay the target is T1, human liver GK (Homo sapiens, UniProt P35557).
T1 construct: GST (glutathione S-transferase) (N); made in house; host or cells: E. coli
T1 sequence (P35557 1-466 isoform P35557-2): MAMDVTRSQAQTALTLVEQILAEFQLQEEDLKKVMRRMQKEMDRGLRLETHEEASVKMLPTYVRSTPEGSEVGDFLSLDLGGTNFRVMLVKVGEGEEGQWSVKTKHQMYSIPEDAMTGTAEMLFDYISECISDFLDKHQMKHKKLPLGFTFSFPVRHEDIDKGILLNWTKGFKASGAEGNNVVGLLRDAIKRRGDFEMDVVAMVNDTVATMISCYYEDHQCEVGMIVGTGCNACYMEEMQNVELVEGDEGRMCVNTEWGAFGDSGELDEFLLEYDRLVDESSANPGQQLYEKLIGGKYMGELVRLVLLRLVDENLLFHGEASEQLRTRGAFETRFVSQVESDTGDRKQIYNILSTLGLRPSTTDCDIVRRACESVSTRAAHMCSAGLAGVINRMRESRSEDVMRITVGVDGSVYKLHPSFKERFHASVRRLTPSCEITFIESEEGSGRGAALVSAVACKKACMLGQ
As to the kind of experiment: GK activation test. Particulars: test compound concentration needed to activate 50% of maximum activation ability; 4 mM 14C-labeled glucose, 2 mM ATP, room temperature, 20 minutes. In kind it is biochemical. In outline: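 GST-tagged human liver GK from E. coli (0.24 μg/well) with 4 mM 14C-glucose, 2 mM ATP in Hepes-KOH pH 7.1, KCl, MgCl2, DTT, 1% DMSO, 20 min room temperature. Labeled glucose 6-phosphate captured on anion resin, eluted and counted. EC50 = concentration giving half of maximal activation.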
`CSc1ccc(/C(=C\[C@H]2CCC(=O)C2)c2ccc(C)c(=O)[nH]2)cc1Cl` [Example 1-67, 6-{(E)-1-[3-Chloro-4-(methylsulfanyl)phenyl]-2-[(1S)-3-oxocyclopentyl]ethenyl}-3-methylpyridin-2(1H)-one] had an EC50 of 10 to 500 nM.

For the compound `O=C1CC[C@H](/C=C(\c2ccc(SC3CC3)cc2)c2ccc(Cl)c(=O)[nH]2)N1` [Example 4-37, 3-Chloro-6-{(E)-1-[4-(cyclopropylsulfanyl)phenyl]-2-[(2R)-5-oxopyrrolidin-2-yl]ethenyl}pyridin-2(1H)-one], the EC50 lay within 10 to 500 nM.

With `Cc1cc(/C(=C\[C@H]2CCC(=O)N2)c2ccc(C3CC3)c(=O)[nH]2)ccc1C(F)F` [Example 4-133, 3-Cyclopropyl-6-{(E)-1-[4-(difluoromethyl)-3-methylphenyl]-2-[(2R)-5-oxopyrrolidin-2-yl]ethenyl}pyridin-2(1H)-one], the half-maximal effective concentration (EC50) was 10 to 500 nM.

With `CCc1ccc(C(CC2CCCC2)c2ccc(S(C)(=O)=O)cc2)[nH]c1=O` (centres unmarked) [Example 2-7, 6-{2-Cyclopentyl-1-[4-(methylsulfonyl)phenyl]ethyl}-3-ethylpyridin-2(1H)-one], the EC50 was in the range of 500 to 3000 nM.

`N#Cc1ccc(/C(=C\[C@H]2CCC(=O)N2)c2ccc(C3CC3)c(=O)[nH]2)cc1` [Example 4-285, 4-{(E)-1-(5-Cyclopropyl-6-oxo-1,6-dihydropyridin-2-yl)-2-[(2R)-5-oxopyrrolidin-2-yl]ethenyl}benzonitrile] gave an EC50 of 500 to 3000 nM.

`CC(C)(C)c1ccc(/C(=C\[C@H]2CCC(=O)N2)c2ccc(Br)c(=O)[nH]2)cc1` [Example 4-177, 3-Bromo-6-{(E)-1-(4-tert-butylphenyl)-2-[(2R)-5-oxopyrrolidin-2-yl]ethenyl}pyridin-2(1H)-one] had an EC50 of 10 to 500 nM.

In turn, `O=C1CC[C@H](/C=C(\c2ccc(S(=O)(=O)Cc3ccccc3)c(Cl)c2)c2ccc(C3CC3)c(=O)[nH]2)N1` [Example 4-293, 6-{(E)-1-[4-(Benzylsulfonyl)-3-chlorophenyl]-2-[(2R)-5-oxopyrrolidin-2-yl]ethenyl}-3-cyclopropylpyridin-2(1H)-one] registered an EC50 of 10 to 500 nM.

`CCN(CC)CCCOc1ccc(/C(=C\[C@H]2CCC(O)C2)c2ccc(C3CC3)c(=O)[nH]2)cc1Cl` (stereo partly drawn) [Example 1-87, 6-{(E)-1-{3-Chloro-4-[3-(diethylamino)propoxy]phenyl}-2-[(1S)-3-hydroxycyclopentyl]ethenyl}-3-cyclopropylpyridin-2(1H)-one] showed an EC50 of 500 to 3000 nM.

On to `CN(C)S(=O)(=O)c1ccc(/C(=C\[C@H]2CCC(=O)N2)c2ccc(C3CC3)c(=O)[nH]2)cc1` [Example 4-292, 4-{(E)-1-(5-Cyclopropyl-6-oxo-1,6-dihydropyridin-2-yl)-2-[(2R)-5-oxopyrrolidin-2-yl]ethenyl}-N,N-dimethylbenzenesulfonamide], for which the EC50 was 10 to 500 nM.

Consider `CC(C)(C)c1ccc(/C(=C\[C@H]2CCN(C(=O)C3CC3)C2)c2ccc(Cl)c(=O)[nH]2)cc1` [Example 4-92, 6-{(E)-1-(4-tert-Butylphenyl)-2-[(3R)-1-(cyclopropylcarbonyl)pyrrolidin-3-yl]ethenyl}-3-chloropyridin-2(1H)-one], for which the EC50 is 10 to 500 nM.

The compound `Cc1cc(C(C[C@H]2CCC(=O)N2)c2ccc(C3CC3)c(=O)[nH]2)ccc1C(F)(F)F` (single isomer, unassigned) [Example 4-330] displayed an EC50 of 500 to 3000 nM.

In turn, `O=C1CC[C@H](/C=C(\c2ccc(OC(F)(F)F)c(Cl)c2)c2ccc(C3CC3)c(=O)[nH]2)N1` [Example 4-128, 6-{(E)-1-[3-Chloro-4-(trifluoromethoxy)phenyl]-2-[(2R)-5-oxopyrrolidin-2-yl]ethenyl}-3-cyclopropylpyridin-2(1H)-one] yielded a concentration for a half-maximal effect (EC50) of 10 to 500 nM.

The compound `O=C1CC[C@H](/C=C(\c2ccc(OC3CC3)cc2)c2ccc(Cl)c(=O)[nH]2)N1` [Example 4-90, 3-Chloro-6-{(E)-1-[4-(cyclopropyloxy)phenyl]-2-[(2R)-5-oxopyrrolidin-2-yl]ethenyl}pyridin-2(1H)-one] returned an EC50 of 500 to 3000 nM.

On to `CC(C)(C)c1ccc(/C(=C\[C@H]2CCC(=O)N2)c2ccc(-c3ccccc3)c(=O)[nH]2)cc1` [Example 4-178, 6-{(E)-1-(4-tert-Butylphenyl)-2-[(2R)-5-oxopyrrolidin-2-yl]ethenyl}-3-phenylpyridin-2(1H)-one], for which the EC50 is 10 to 500 nM.

Take `CC(C)(C)c1ccc(C(C[C@H]2CCN(C(=O)C3CC3)C2)c2ccc(Cl)c(=O)[nH]2)cc1` (single isomer, unassigned) [Example 4-97]: the concentration giving a half-maximal response (EC50) lay within 3000 to 10000 nM.

In the case of `O=C1CC[C@H](/C=C(\c2cccc(OCCCO)c2)c2ccc(C3CC3)c(=O)[nH]2)N1` [Example 4-8, 3-Cyclopropyl-6-{(E)-1-[3-(3-hydroxypropoxy)phenyl]-2-[(2R)-5-oxopyrrolidin-2-yl]ethenyl}pyridin-2(1H)-one], the 50% effective concentration (EC50) is 500 to 3000 nM.

`Cc1ccc(C(C[C@H]2CCC(=O)N2)c2ccc(Cl)c(=O)[nH]2)cc1` (single isomer, unassigned) [Example 4-318] registered an EC50 of 3000 to 10000 nM.

Consider `CSc1ccc([C@]2(c3ccc(C)c(=O)[nH]3)C[C@@H]2C2CCCC2)cc1Cl` (relative stereo) [Example 3-1, trans-6-{-1-[3-Chloro-4-(methylsulfanyl)phenyl]-2-cyclopentylcyclopropyl}-3-methylpyridin-2(1H)-one], for which the concentration for a half-maximal effect (EC50) fell in the range of 500 to 3000 nM.

`O=C1CC[C@H](CC(c2ccc(S(=O)(=O)C3CC3)cc2)c2ccc(C3CC3)c(=O)[nH]2)N1` (single isomer, unassigned) [Example 4-306] yielded an EC50 of 10 to 500 nM.

Turning to `CCc1ccc(C(C[C@H]2CCC(=O)N2)c2ccc(Cl)c(=O)[nH]2)cc1` (single isomer, unassigned) [Example 4-308], the EC50 is 500 to 3000 nM.

Compound `CCC(=O)N1CC[C@H](/C=C(\c2ccc(C(C)(C)C)cc2)c2ccc(Cl)c(=O)[nH]2)C1` [Example 4-68, 6-{(E)-1-(4-tert-Butylphenyl)-2-[(3R)-1-propanoylpyrrolidin-3-yl]ethenyl}-3-chloropyridin-2(1H)-one] had a half-maximal effective concentration (EC50) of 10 to 500 nM.

Turning to `CCc1ccc(/C(=C\[C@H]2CCN(C(C)=O)C2)c2ccc(Cl)c(=O)[nH]2)cc1` [Example 4-40, 6-[(E)-2-[(3R)-1-Acetylpyrrolidin-3-yl]-1-(4-ethylphenyl)ethenyl]-3-chloropyridin-2(1H)-one], the EC50 was 500 to 3000 nM.

As to `CC(C)c1ccc(/C(=C/C2CCCC2)c2ccc(S(C)(=O)=O)cc2)[nH]c1=O` [Example 1-4, 6-{(E)-2-Cyclopentyl-1-[4-(methylsulfonyl)phenyl]ethenyl}-3-(propan-2-yl)pyridin-2(1H)-one], the EC50 is 10 to 500 nM.

Turning to `CC(C)(C)c1ccc(C(CCN2CCOC2=O)c2ccc(Cl)c(=O)[nH]2)cc1` (single isomer, unassigned) [Example 6-29, 6-[1-(4-tert-Butylphenyl)-3-(2-oxo-1,3-oxazolidin-3-yl)propyl]-3-chloropyridin-2(1H)-one], the concentration for a half-maximal effect (EC50) lay within 500 to 3000 nM.

For the compound `CC(C)c1ccc(/C(=C/[C@H]2CCC(=O)N2)c2ccc(Cl)c(=O)[nH]2)cc1` [Example 4-82, 3-Chloro-6-{(Z)-2-[(2R)-5-oxopyrrolidin-2-yl]-1-[4-(propan-2-yl)phenyl]ethenyl}pyridin-2(1H)-one], the half-maximal effective concentration (EC50) fell in the range of 3000 to 10000 nM.

As for `Cc1cc(/C(=C\[C@H]2CCC(=O)N2)c2ccc(Cl)c(=O)[nH]2)ccc1S(=O)(=O)C1CC1` [Example 4-55, 3-Chloro-6-{(E)-1-[4-(cyclopropylsulfonyl)-3-methylphenyl]-2-[(2R)-5-oxopyrrolidin-2-yl]ethenyl}pyridin-2(1H)-one], the EC50 is 10 to 500 nM.

With `O=C1CC[C@H](/C=C(\c2ccc(C(F)(F)F)cc2)c2ccc(-c3cn[nH]c3)c(=O)[nH]2)N1` [Example 4-360, 6-{(E)-2-[(2R)-5-Oxopyrrolidin-2-yl]-1-[4-(trifluoromethyl)phenyl]ethenyl}-3-(1H-pyrazol-4-yl)pyridin-2(1H)-one], the EC50 fell in the range of 10 to 500 nM.

Take `Cc1ccc(C(C[C@H]2CCC(=O)C2)c2ccc(S(C)(=O)=O)cc2)[nH]c1=O` (stereo partly drawn) [Example 2-23, 3-Methyl-6-{1-[4-(methylsulfonyl)phenyl]-2-[(1R)-3-oxocyclopentyl]ethyl}pyridin-2(1H)-one]: the 50% effective concentration (EC50) lay within 3000 to 10000 nM.

In the case of `O=C1CC[C@H](CC(c2ccc(C(F)F)c(F)c2)c2ccc(C3CC3)c(=O)[nH]2)N1` (single isomer, unassigned) [Example 4-234], the EC50 was 3000 to 10000 nM.

In turn, `Cc1ccc(/C(=N/OC2CCCC2)c2ccc(S(C)(=O)=O)cc2)[nH]c1=O` [Example 5-3, (E)-6-{(Cyclopentyloxyimino)[4-(methylsulfonyl)phenyl]methyl}-3-methylpyridin-2(1H)-one] displayed an EC50 of 3000 to 10000 nM.

Turning to `CCN(CC)CCCOc1ccc(/C(=C\[C@H]2CCC(=O)C2)c2ccc(C3CC3)c(=O)[nH]2)cc1` [Example 1-66, 3-Cyclopropyl-6-{(E)-1-{4-[3-(diethylamino)propoxy]phenyl}-2-[(1S)-3-oxocyclopentyl]ethenyl}pyridin-2(1H)-one], the EC50 lay within 500 to 3000 nM.

Turning to `CCCCCc1ccc(/C(=C/[C@H]2CCC(=O)N2)c2ccc(C(C)(C)C)cc2)[nH]c1=O` [Example 4-193, 6-{(E)-1-(4-tert-Butylphenyl)-2-[(2R)-5-oxopyrrolidin-2-yl]ethenyl}-3-pentylpyridin-2(1H)-one], the EC50 was 10 to 500 nM.

The values are drawn from patent US8822503B2, “2-pyridone compounds” (Taisho Pharmaceutical Co., Ltd, priority 2009, dated 2014).
